According to PubChem BioAssay AID1259407 (Chemical Carcinogenesis Research Information System (CCRIS), 2018):
Activity calls are given as the source filed them. How the calls were made is not given here.

System: CCRIS mutagenicity, Ames/micronucleus/aberration tests
Test: CCRIS mutagenicity studies
[1] = Test System: AMES SALMONELLA TYPHIMURIUM, Strain/Indicator: TA98, Metabolic Activation: NONE, Method: STANDARD PLATE

O=c1c(=O)c2cccc3ccc4cccc1c4c32
mutagenic call (Test System: AMES SALMONELLA TYPHIMURIUM, Strain/Indicator: TA98, Metabolic Activation: NONE, Method: PREINCUBATION): inactive; negative | mutagenic call (Test System: AMES SALMONELLA TYPHIMURIUM, Strain/Indicator: TA98, Metabolic Activation: RAT, LIVER, S-9, AROCLOR 1254, Method: PREINCUBATION): inactive; negative | mutagenic call (Test System: AMES SALMONELLA TYPHIMURIUM, Strain/Indicator: TA100, Metabolic Activation: NONE, Method: PREINCUBATION): inactive; negative | mutagenic call (Test System: AMES SALMONELLA TYPHIMURIUM, Strain/Indicator: TA100, Metabolic Activation: RAT, LIVER, S-9, AROCLOR 1254, Method: PREINCUBATION): inactive; negative

c1ccc2c(c1)-c1c(ccc3ccccc13)[C@H]1N[C@@H]21
mutagenic call (Test System: AMES SALMONELLA TYPHIMURIUM, Strain/Indicator: TA98, Metabolic Activation: NONE, Method: PREINCUBATION (KCL-CONTAINING MEDIUM)): active; positive | mutagenic call (Test System: AMES SALMONELLA TYPHIMURIUM, Strain/Indicator: TA98, Metabolic Activation: NONE, Method: PREINCUBATION (KCL-FREE MEDIUM)): active; positive | mutagenic call (Test System: AMES SALMONELLA TYPHIMURIUM, Strain/Indicator: TA100, Metabolic Activation: NONE, Method: PREINCUBATION (KCL-CONTAINING MEDIUM)): active; positive | mutagenic call (Test System: AMES SALMONELLA TYPHIMURIUM, Strain/Indicator: TA100, Metabolic Activation: NONE, Method: PREINCUBATION (KCL-FREE MEDIUM)): active; positive

COc1nsc2cc(N)ccc12
mutagenic call (Test System: AMES SALMONELLA TYPHIMURIUM, Strain/Indicator: TA98, Metabolic Activation: S-9, Method: STANDARD PLATE): active; positive

NC(=O)N(CCCO)N=O
mutagenic call (Test System: E. COLI B, Strain/Indicator: H/R30R, Metabolic Activation: NONE): active; positive | mutagenic call (Test System: E. COLI B, Strain/Indicator: HS30R, Metabolic Activation: NONE): active; positive

C1=Cc2c3cc4ccccc4cc3cc3cccc1c23
mutagenic call [1]: active; positive | mutagenic call (Test System: AMES SALMONELLA TYPHIMURIUM, Strain/Indicator: TA98, Metabolic Activation: RAT, LIVER, S-9, AROCLOR 1254 (0.127 OR 1.27 MG S-9 PROTEIN), Method: STANDARD PLATE): active; positive

CC(=O)O[C@H]1CC[C@]2(C)[C@H]3CC[C@]4(C)[C@@H]([C@H](C)CCCC(C)C)CC[C@H]4[C@@H]3C[C@@H]3N(N4C(=O)c5ccccc5C4=O)[C@@]32C1 (stereo partly specified)
mutagenic call (Test System: AMES SALMONELLA TYPHIMURIUM, Strain/Indicator: TA97A, Metabolic Activation: NONE, Method: STANDARD PLATE): active; positive | mutagenic call (Test System: AMES SALMONELLA TYPHIMURIUM, Strain/Indicator: TA97A, Metabolic Activation: RAT, LIVER, S-9, AROCLOR 1254, Method: STANDARD PLATE): active; positive | mutagenic call [1]: active; positive | mutagenic call (Test System: AMES SALMONELLA TYPHIMURIUM, Strain/Indicator: TA100, Metabolic Activation: NONE, Method: STANDARD PLATE): active; positive | mutagenic call (Test System: AMES SALMONELLA TYPHIMURIUM, Strain/Indicator: TA100, Metabolic Activation: RAT, LIVER, S-9, AROCLOR 1254, Method: STANDARD PLATE): active; positive | mutagenic call (Test System: AMES SALMONELLA TYPHIMURIUM, Strain/Indicator: TA102, Metabolic Activation: NONE, Method: STANDARD PLATE): inactive; negative | mutagenic call (Test System: AMES SALMONELLA TYPHIMURIUM, Strain/Indicator: TA102, Metabolic Activation: RAT, LIVER, S-9, AROCLOR 1254, Method: STANDARD PLATE): active; positive | mutagenic call (Test System: AMES SALMONELLA TYPHIMURIUM, Strain/Indicator: TA104, Metabolic Activation: NONE, Method: STANDARD PLATE): active; positive | mutagenic call (Test System: AMES SALMONELLA TYPHIMURIUM, Strain/Indicator: TA104, Metabolic Activation: RAT, LIVER, S-9, AROCLOR 1254, Method: STANDARD PLATE): active; positive

Cc1ccc2c(ccc3cc4ccccc4cc32)c1
mutagenic call (Test System: AMES SALMONELLA TYPHIMURIUM, Strain/Indicator: TA100, Metabolic Activation: RAT, INTACT HEPATOCYTES, AROCLOR 1254, Method: PREINCUBATION): inactive; negative | mutagenic call (Test System: AMES SALMONELLA TYPHIMURIUM, Strain/Indicator: TA100, Metabolic Activation: RAT, NADPH-FORTIFIED HOMOGENIZED HEPATOCYTES, AROCLOR 1254, Method: PREINCUBATION): active; positive | mutagenic call (Test System: AMES SALMONELLA TYPHIMURIUM, Strain/Indicator: TA100, Metabolic Activation: RAT, SONICATED HEPATOCYTES, AROCLOR 1254, Method: PREINCUBATION): active; positive

Cc1ccc2cc3c(ccc4ccccc43)c3c2c1C(O)C3 (stereo unspecified)
mutagenic call (Test System: CHINESE HAMSTER V-79, Strain/Indicator: V-79/8-AZAGUANINE, Metabolic Activation: RAT, LIVER, S-9, AROCLOR 1254, Method: STANDARD PLATE): active; positive
